Data reported in patent US10670605B2, “Cysteine reactive probes and uses thereof” (The Scripps Research Institute, priority 2015, dated 2020).

Tests used:
Experiment in all cases: Competitive isoTOP-ABPP, cell lysates;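 on isoTOP-ABPP reactivity profile ratio, P09211 C48: Heavy/light ratio DMSO over fragment-treated so higher means more cysteine engagement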;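 on isoTOP-ABPP reactivity profile ratio, Q99873 C109: Heavy/light ratio DMSO over fragment-treated so higher means more cysteine engagement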
Format in all cases: binding
[1] = biological target: ZNF217 C286 (O75362) (Homo sapiens, UniProt O75362); conditions: for isoTOP-ABPP reactivity profile ratio, O75362_C286 / isoTOP-ABPP reactivity ratio, O75362_C286: 500 μm; for isoTOP-ABPP ratio O75362_C286: 500 μM, invitro
Sequence of ZNF217 C286 (O75362) (O75362 whole entry): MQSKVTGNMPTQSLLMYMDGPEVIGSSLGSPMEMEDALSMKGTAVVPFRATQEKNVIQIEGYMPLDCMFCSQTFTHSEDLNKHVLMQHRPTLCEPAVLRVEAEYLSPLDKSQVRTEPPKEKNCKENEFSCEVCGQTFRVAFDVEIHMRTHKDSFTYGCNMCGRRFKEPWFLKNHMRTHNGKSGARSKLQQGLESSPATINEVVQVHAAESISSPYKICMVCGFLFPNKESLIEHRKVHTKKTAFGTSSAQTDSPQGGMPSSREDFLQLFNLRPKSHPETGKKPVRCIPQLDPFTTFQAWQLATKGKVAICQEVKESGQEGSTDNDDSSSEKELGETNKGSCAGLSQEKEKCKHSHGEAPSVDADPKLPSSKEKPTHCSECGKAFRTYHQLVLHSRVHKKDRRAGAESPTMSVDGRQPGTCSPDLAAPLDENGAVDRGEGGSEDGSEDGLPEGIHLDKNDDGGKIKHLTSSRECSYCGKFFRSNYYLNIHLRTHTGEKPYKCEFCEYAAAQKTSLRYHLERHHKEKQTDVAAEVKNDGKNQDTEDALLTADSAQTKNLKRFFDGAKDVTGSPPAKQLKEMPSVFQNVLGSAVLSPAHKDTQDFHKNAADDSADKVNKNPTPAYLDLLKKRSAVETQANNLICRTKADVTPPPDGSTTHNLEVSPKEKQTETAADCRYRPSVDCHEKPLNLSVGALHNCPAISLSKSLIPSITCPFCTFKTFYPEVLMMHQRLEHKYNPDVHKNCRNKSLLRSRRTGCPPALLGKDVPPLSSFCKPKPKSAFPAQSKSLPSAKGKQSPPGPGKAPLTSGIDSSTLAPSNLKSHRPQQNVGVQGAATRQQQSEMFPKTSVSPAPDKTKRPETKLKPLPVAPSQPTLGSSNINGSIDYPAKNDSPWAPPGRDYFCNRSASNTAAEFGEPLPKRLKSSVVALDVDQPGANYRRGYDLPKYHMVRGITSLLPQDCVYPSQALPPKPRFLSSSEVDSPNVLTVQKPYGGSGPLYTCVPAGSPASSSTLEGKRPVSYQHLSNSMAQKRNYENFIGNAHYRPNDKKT

[2] = biological target: T1, PDE12 C108 (Q6L8Q7) (Homo sapiens, UniProt Q6L8Q7); conditions: for isoTOP-ABPP reactivity profile ratio, Q6L8Q7_C108 / isoTOP-ABPP reactivity ratio, Q6L8Q7_C108: 500 μm
T1 sequence (Q6L8Q7 43-609): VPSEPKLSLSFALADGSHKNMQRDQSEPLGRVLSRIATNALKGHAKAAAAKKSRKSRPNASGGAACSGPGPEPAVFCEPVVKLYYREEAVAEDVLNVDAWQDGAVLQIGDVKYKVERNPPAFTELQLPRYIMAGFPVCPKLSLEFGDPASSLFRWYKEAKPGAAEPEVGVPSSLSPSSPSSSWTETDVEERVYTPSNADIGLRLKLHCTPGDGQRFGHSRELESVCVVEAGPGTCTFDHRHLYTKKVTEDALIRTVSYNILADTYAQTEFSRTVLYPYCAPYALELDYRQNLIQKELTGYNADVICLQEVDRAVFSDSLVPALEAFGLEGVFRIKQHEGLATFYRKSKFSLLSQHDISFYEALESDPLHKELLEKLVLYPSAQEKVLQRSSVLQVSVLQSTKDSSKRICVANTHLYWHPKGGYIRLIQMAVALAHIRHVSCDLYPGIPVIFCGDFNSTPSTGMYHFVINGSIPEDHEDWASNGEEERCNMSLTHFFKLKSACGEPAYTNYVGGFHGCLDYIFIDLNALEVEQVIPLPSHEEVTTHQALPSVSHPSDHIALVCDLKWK

[3] = biological target: GSTP1 C48 (P09211) (Homo sapiens, UniProt P09211); conditions: for isoTOP-ABPP ratio, P09211_C48: 500 μM, invitro;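 on isoTOP-ABPP reactivity profile ratio, P09211 C48: Heavy/light ratio DMSO over fragment-treated so higher means more cysteine engagement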
Sequence of GSTP1 C48 (P09211) (P09211 whole entry, the tested form may be a part): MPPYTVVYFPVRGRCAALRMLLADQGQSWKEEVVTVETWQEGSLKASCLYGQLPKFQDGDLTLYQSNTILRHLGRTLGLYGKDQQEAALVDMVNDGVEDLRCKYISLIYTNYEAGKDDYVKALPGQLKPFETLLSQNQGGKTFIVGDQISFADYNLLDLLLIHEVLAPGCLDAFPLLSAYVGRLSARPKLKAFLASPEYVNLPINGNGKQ

[4] = biological target: PRMT1 C109 (Q99873) (Homo sapiens, UniProt Q99873); conditions: for isoTOP-ABPP reactivity profile ratio, Q99873_C109 / isoTOP-ABPP reactivity ratio, Q99873_C109: 500 μm; for isoTOP-ABPP ratio, Q99873_C109: 500 μM, invitro;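 on isoTOP-ABPP reactivity profile ratio, Q99873 C109: Heavy/light ratio DMSO over fragment-treated so higher means more cysteine engagement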
Sequence of PRMT1 C109 (Q99873) (Q99873 whole entry, the tested form may be a part): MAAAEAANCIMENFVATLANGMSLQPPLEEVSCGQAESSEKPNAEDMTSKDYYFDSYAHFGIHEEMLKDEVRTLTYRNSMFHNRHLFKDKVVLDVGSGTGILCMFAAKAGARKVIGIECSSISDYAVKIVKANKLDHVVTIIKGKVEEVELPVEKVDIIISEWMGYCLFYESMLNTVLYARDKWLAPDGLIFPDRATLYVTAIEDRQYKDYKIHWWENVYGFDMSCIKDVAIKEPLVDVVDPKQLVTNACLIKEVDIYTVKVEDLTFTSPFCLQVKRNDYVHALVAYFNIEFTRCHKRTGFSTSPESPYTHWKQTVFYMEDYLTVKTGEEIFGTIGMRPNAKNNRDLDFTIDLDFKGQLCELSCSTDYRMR

[5] = biological target: T2, MGMT C150 (P16455) (Homo sapiens, UniProt P16455)
T2 sequence (P16455 1-207): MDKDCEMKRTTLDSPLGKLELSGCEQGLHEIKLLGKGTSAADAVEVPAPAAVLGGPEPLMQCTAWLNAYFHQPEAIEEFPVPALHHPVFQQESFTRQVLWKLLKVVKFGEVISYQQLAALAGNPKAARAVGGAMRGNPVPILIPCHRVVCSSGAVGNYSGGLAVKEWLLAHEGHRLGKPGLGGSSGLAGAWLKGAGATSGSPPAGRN

[6] = biological target: T3, PDIA6 C190 (Q15084) (Homo sapiens, UniProt Q15084); conditions: for isoTOP-ABPP ratio, Q15084_C190: 500 μM, invitro
T3 sequence (Q15084 20-440): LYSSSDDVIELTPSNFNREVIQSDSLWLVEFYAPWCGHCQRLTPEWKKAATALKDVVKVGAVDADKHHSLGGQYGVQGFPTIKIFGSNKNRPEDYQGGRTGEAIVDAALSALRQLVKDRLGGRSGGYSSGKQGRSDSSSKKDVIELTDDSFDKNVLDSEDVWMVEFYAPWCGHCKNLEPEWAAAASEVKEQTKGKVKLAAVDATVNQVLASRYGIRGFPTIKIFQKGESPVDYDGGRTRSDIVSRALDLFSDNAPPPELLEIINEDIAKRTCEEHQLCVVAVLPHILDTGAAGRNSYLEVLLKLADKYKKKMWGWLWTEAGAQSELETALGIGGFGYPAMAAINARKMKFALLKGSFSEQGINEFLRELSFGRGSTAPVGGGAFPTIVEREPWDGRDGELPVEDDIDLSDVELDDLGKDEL

[7] = biological target: XPO1 C34 (O14980) (Homo sapiens, UniProt O14980); conditions: for isoTOP-ABPP reactivity profile ratio, O14980_C34 / isoTOP-ABPP reactivity ratio, O14980_C34: 500 μm; for isoTOP-ABPP ratio, O14980_C34: 500 μM, invitro
Sequence of XPO1 C34 (O14980) (O14980 whole entry): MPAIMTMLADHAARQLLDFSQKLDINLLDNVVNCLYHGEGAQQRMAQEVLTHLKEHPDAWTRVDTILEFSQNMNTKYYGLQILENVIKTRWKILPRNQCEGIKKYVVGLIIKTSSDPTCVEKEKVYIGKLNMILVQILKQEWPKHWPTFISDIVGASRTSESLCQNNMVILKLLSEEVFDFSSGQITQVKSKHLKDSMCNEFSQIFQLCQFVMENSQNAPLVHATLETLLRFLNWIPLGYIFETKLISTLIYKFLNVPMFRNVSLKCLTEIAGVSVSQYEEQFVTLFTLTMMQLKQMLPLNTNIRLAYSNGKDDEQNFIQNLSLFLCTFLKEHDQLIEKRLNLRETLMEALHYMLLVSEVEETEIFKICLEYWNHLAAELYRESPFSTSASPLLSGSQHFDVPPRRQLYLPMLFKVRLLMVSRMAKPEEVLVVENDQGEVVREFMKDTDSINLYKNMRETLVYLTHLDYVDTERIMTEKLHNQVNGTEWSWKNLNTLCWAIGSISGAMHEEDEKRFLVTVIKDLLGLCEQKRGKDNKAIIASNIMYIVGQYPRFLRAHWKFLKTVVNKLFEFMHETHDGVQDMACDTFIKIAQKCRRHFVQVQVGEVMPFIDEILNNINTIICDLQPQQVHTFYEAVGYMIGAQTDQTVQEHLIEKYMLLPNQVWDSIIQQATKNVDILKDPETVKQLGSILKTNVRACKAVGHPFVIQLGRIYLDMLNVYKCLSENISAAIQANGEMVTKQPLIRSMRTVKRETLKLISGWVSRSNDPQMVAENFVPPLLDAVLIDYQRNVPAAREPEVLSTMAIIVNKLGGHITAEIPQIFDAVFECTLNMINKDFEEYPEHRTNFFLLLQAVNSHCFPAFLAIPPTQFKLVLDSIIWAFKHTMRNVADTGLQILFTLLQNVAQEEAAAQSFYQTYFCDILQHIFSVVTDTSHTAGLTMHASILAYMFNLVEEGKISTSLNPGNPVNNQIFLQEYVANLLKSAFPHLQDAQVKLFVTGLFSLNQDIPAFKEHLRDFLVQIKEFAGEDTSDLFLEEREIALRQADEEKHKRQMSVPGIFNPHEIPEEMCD

[8] = biological target: GNB2L1 C182 (P63244) (Homo sapiens, UniProt P63244); conditions: for isoTOP-ABPP ratio, P63244_C182: 500 μM, invitro
[9] = biological target: DCUN1D1 C115 (Q96GG9) (Homo sapiens, UniProt Q96GG9); conditions: for isoTOP-ABPP reactivity profile ratio, Q96GG9_C115 / isoTOP-ABPP reactivity ratio, Q96GG9_C115: 500 μm
Sequence of DCUN1D1 C115 (Q96GG9) (Q96GG9 whole entry): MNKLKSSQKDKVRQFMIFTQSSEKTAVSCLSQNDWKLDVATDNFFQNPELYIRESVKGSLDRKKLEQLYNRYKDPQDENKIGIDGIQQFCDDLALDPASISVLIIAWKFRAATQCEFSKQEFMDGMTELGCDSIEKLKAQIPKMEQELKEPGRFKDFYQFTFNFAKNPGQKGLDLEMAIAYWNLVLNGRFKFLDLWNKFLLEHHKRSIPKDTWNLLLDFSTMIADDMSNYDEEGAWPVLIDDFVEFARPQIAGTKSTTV

Question: `O=C(CCl)Nc1ccc(-c2ccccc2)cc1` [compound 52] was tested. Which “isoTOP-ABPP reactivity profile ratio, O75362_C286” value ([1]; in-vitro_ramos_231) did it give?
Answer: Its value is 1.0.

Question: What about the “isoTOP-ABPP reactivity profile ratio, Q6L8Q7_C108” value ([2]; in-vitro_ramos) of the same compound?
Answer: Its value is 6.8.

Question: What about the “isoTOP-ABPP reactivity profile ratio, Q6L8Q7_C108” value ([2]; in-vitro_ramos_231) of the same compound?
Answer: The value was 1.4.

Question: And the “isoTOP-ABPP reactivity profile ratio, P09211_C48” value ([3]; 500 μm, in-vitro_ramos)?
Answer: Its value is 1.9.

Question: And the “isoTOP-ABPP reactivity profile ratio, P09211_C48” value ([3]; 500 μm, in-vitro_ramos_231)?
Answer: The value was 1.0.

Question: What about the “isoTOP-ABPP reactivity profile ratio, Q99873_C109” value ([4]; in-vitro_ramos) of the same compound?
Answer: The value was 1.3.

Question: What about the “isoTOP-ABPP reactivity profile ratio, Q99873_C109” value ([4]; in-vitro_ramos_231) of the same compound?
Answer: The value was 0.9.

Question: What about the “isoTOP-ABPP reactivity profile ratio, P16455_C150” value ([5]; 500 μm, in-vitro_ramos) of the same compound?
Answer: Its value is 2.2.

Question: What about the “isoTOP-ABPP reactivity profile ratio, Q15084_C190” value ([6]; 500 μm, in-vitro_ramos) of the same compound?
Answer: Its value is 1.9.

Question: And the “isoTOP-ABPP reactivity profile ratio, Q15084_C190” value ([6]; 500 μm, in-vitro_ramos_231)?
Answer: The value was 1.0.

Question: And the “isoTOP-ABPP reactivity profile ratio, O14980_C34” value ([7]; in-vitro_ramos)?
Answer: Its value is 1.1.

Question: And the “isoTOP-ABPP reactivity profile ratio, O14980_C34” value ([7]; in-vitro_ramos_231)?
Answer: The value was 1.0.

Question: What about the “isoTOP-ABPP reactivity profile ratio, P63244_C182” value ([8]; 500 μm, in-vitro_ramos_231) of the same compound?
Answer: The value was 1.0.

Question: What about the “isoTOP-ABPP reactivity profile ratio, Q96GG9_C115” value ([9]; in-vitro_ramos) of the same compound?
Answer: Its value is 1.0.

Question: How did the “isoTOP-ABPP reactivity profile ratio, O75362_C286” value ([1]; in-vitro_ramos_231) turn out when `C=CC(=O)N1CCC(Cc2ccccc2)CC1` [compound 53] was run?
Answer: The value was 1.1.

Question: And the “isoTOP-ABPP reactivity profile ratio, Q6L8Q7_C108” value ([2]; in-vitro_ramos)?
Answer: The value was 1.1.

Question: What about the “isoTOP-ABPP reactivity profile ratio, P09211_C48” value ([3]; 500 μm, in-vitro_ramos) of the same compound?
Answer: The value was 1.2.

Question: What about the “isoTOP-ABPP reactivity profile ratio, P09211_C48” value ([3]; 500 μm, in-vitro_ramos_231) of the same compound?
Answer: The value was 2.3.

Question: What about the “isoTOP-ABPP reactivity profile ratio, Q99873_C109” value ([4]; in-vitro_ramos) of the same compound?
Answer: Its value is 1.1.

Question: And the “isoTOP-ABPP reactivity profile ratio, Q99873_C109” value ([4]; in-vitro_ramos_231)?
Answer: The value was 0.9.

Question: What about the “isoTOP-ABPP reactivity profile ratio, P16455_C150” value ([5]; 500 μm, in-vitro_ramos) of the same compound?
Answer: Its value is 1.1.

Question: What about the “isoTOP-ABPP reactivity profile ratio, Q15084_C190” value ([6]; 500 μm, in-vitro_ramos) of the same compound?
Answer: The value was 1.0.

Question: What about the “isoTOP-ABPP reactivity profile ratio, Q15084_C190” value ([6]; 500 μm, in-vitro_ramos_231) of the same compound?
Answer: The value was 1.0.

Question: And the “isoTOP-ABPP reactivity profile ratio, O14980_C34” value ([7]; in-vitro_ramos)?
Answer: Its value is 1.0.

Question: And the “isoTOP-ABPP reactivity profile ratio, O14980_C34” value ([7]; in-vitro_ramos_231)?
Answer: The value was 0.9.

Question: And the “isoTOP-ABPP reactivity profile ratio, P63244_C182” value ([8]; 500 μm, in-vitro_ramos)?
Answer: Its value is 0.8.

Question: What about the “isoTOP-ABPP reactivity profile ratio, P63244_C182” value ([8]; 500 μm, in-vitro_ramos_231) of the same compound?
Answer: The value was 0.9.

Question: What about the “isoTOP-ABPP reactivity profile ratio, Q96GG9_C115” value ([9]; in-vitro_ramos) of the same compound?
Answer: Its value is 0.9.

Question: What about the “isoTOP-ABPP reactivity profile ratio, Q96GG9_C115” value ([9]; in-vitro_ramos_231) of the same compound?
Answer: Its value is 1.0.

Question: Which “isoTOP-ABPP ratio O75362_C286” value [1]; 231 does the source give for `Cn1cc(S(=O)(=O)N2CCOCC2)cc1C(=O)NC(=O)CCl` [compound 11] here?
Answer: The value was 1.2.

Question: What about the “isoTOP-ABPP ratio O75362_C286” value ([1]; ramos) of the same compound?
Answer: Its value is 1.2.

Question: And the “isoTOP-ABPP ratio, Q6L8Q7_C108” value ([2]; 500 μM, invitro, 231)?
Answer: Its value is 4.2.

Question: What about the “isoTOP-ABPP ratio, P09211_C48” value [3]; 231 of the same compound?
Answer: The value was 1.7.

Question: And the “isoTOP-ABPP ratio, P09211_C48” value ([3]; ramos)?
Answer: The value was 1.1.

Question: And the “isoTOP-ABPP ratio, Q99873_C109” value [4]; 231?
Answer: The value was 20.0.

Question: And the “isoTOP-ABPP ratio, Q99873_C109” value ([4]; ramos)?
Answer: Its value is 20.0.

Question: What about the “blockade of IA-alkyne labeling of C109 of PRMT1” value ([4]; competitive isoTOP-ABPP) of the same compound?
Answer: Its value is “blocking IA-alkyne labeling”.

Question: What about the “isoTOP-ABPP ratio, P16455_C150” value ([5]; 500 μM, invitro, ramos) of the same compound?
Answer: The value was 20.0.

Question: What about the “isoTOP-ABPP ratio, Q15084_C190” value [6]; 231 of the same compound?
Answer: The value was 20.0.

Question: What about the “isoTOP-ABPP ratio, Q15084_C190” value ([6]; ramos) of the same compound?
Answer: Its value is 20.0.

Question: And the “isoTOP-ABPP ratio, O14980_C34” value [7]; 231?
Answer: The value was 1.2.

Question: And the “isoTOP-ABPP ratio, O14980_C34” value ([7]; ramos)?
Answer: Its value is 1.0.

Question: And the “isoTOP-ABPP ratio, P63244_C182” value [8]; 231?
Answer: The value was 1.0.

Question: And the “isoTOP-ABPP ratio, P63244_C182” value ([8]; ramos)?
Answer: Its value is 1.1.

Question: What about the “isoTOP-ABPP ratio, Q96GG9_C115” value ([9]; 500 μM, invitro, ramos) of the same compound?
Answer: The value was 0.9.

Question: Which results are given for `C=CC(=O)Nc1cc(F)c(N2CCN(C(=O)OC(C)(C)C)CC2)c(F)c1` [compound 38]?
Answer: isoTOP-ABPP reactivity ratio, O75362_C286 ([1]; in-vitro_ramos): 1.2; isoTOP-ABPP reactivity ratio, O75362_C286 ([1]; in-vitro_ramos_231): 0.9; isoTOP-ABPP reactivity ratio, Q6L8Q7_C108 ([2]; in-vitro_ramos): 6.8; isoTOP-ABPP reactivity ratio, Q6L8Q7_C108 ([2]; in-vitro_ramos_231): 0.9; isoTOP-ABPP reactivity ratio, P09211_C48 ([3]; 500 μm, in-vitro_ramos_231): 1.9; isoTOP-ABPP reactivity ratio, Q99873_C109 ([4]; in-vitro_ramos): 1.4; isoTOP-ABPP reactivity ratio, Q99873_C109 ([4]; in-vitro_ramos_231): 0.9; isoTOP-ABPP reactivity ratio, P16455_C150 ([5]; 500 μm, in-vitro_ramos): 1.8; isoTOP-ABPP reactivity ratio, Q15084_C190 ([6]; 500 μm, in-vitro_ramos_231): 1.1; isoTOP-ABPP reactivity ratio, O14980_C34 ([7]; in-vitro_ramos): 1.0; isoTOP-ABPP reactivity ratio, O14980_C34 ([7]; in-vitro_ramos_231): 1.0; isoTOP-ABPP reactivity ratio, P63244_C182 ([8]; 500 μm, in-vitro_ramos_231): 1.1; isoTOP-ABPP reactivity ratio, Q96GG9_C115 ([9]; in-vitro_ramos): 1.0; isoTOP-ABPP reactivity ratio, Q96GG9_C115 ([9]; in-vitro_ramos_231): 1.2
